ChEMBL document CHEMBL4619719, “A-ring and E-ring modifications of the cytotoxic alkaloid Luotonin A: Synthesis, computational and biological studies” (Bioorg Med Chem, 2020)
Calls of active or inactive are those of the source. No cut-off for these calls is given here.

Key:
[1] = target: T1, DNA topoisomerase 1 (Homo sapiens) (UniProt P11387); assay: Inhibition of human TOP1 assessed as decrease in relaxation of supercoiled DNA using supercoiled plasmid DNA pGEM1 as substrate at 100 uM preincubated for 30 mins by SDS gel electrophoresis method; design: scale not given: the % may be the effect or the level left
T1 sequence (whole entry): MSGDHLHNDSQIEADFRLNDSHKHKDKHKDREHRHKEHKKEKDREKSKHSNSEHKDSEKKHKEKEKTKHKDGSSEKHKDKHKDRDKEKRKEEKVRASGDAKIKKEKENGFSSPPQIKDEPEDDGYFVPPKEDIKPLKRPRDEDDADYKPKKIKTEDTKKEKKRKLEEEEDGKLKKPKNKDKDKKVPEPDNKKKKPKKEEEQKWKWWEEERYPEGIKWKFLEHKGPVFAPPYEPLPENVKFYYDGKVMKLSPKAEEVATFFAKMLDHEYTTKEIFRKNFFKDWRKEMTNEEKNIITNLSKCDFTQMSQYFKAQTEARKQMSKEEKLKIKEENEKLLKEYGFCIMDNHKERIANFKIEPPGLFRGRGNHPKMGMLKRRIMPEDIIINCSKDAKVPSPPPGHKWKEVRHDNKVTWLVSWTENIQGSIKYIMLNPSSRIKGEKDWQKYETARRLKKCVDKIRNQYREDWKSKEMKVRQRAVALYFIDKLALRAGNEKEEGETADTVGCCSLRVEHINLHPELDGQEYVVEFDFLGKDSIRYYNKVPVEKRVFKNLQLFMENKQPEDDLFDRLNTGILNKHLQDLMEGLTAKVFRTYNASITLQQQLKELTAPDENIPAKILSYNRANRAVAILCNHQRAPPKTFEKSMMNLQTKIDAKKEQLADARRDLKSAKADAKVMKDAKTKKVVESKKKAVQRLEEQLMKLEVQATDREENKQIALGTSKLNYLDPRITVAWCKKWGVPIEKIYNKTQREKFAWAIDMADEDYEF

[2] = target: T1, DNA topoisomerase 1 (Homo sapiens); assay: Inhibition of human TOP1 assessed as decrease in relaxation of supercoiled DNA using supercoiled plasmid DNA pGEM1 as substrate at 10 uM preincubated for 30 mins by SDS gel electrophoresis method; design: scale not given: the % may be the effect or the level left
[3] = target: T1, DNA topoisomerase 1 (Homo sapiens); assay: Inhibition of human TOP1 assessed as decrease in relaxation of supercoiled DNA using supercoiled plasmid DNA pGEM1 as substrate at 1 uM preincubated for 30 mins by SDS gel electrophoresis method; design: scale not given: the % may be the effect or the level left
SW480 [4] = assay: Antiproliferative activity against human SW480 cells assessed as reduction in cell viability at 20 uM measured after 72 hours by MTT assay relative to control; format: functional
HL-60 [5] = assay: Antiproliferative activity against human HL60 cells assessed as reduction in cell viability at 20 uM measured after 72 hrs by MTT assay relative to control; format: functional
SW480 [6] = assay: Antiproliferation activity against human SW480 cells assessed as reduction in cell viability measured after 72 hours by MTT assay; format: functional, cell-based; conditions: SW480, 72 h
HL-60 [7] = assay: Antiproliferation activity against human HL60 cells assessed as reduction in cell viability measured after 72 hrs by MTT assay; format: functional, cell-based; conditions: HL-60, 72 h
HL-60 [8] = assay: Induction of cell cycle arrest in human HL60 cells assessed as accumulation of cells at G2 phase incubated for 24 hrs by propidium iodide staining based flow cytometric analysis; format: functional
SW480 [9] = assay: Induction of cell death in human SW480 cells assessed as accumulation of large nuclei incubated for 72 hrs by Hoechst […] staining based fluorescence microscopic method; format: functional
SW480 [10] = assay: Induction of cell death in human SW480 cells assessed as accumulation of large cells incubated for 72 hrs by Hoechst […] staining based fluorescence microscopic method; format: functional
HL-60 [11] = assay: Induction of cell cycle arrest in human HL60 cells assessed as accumulation of cells at G2 phase at 20 to 35 nM incubated for 24 hrs by propidium iodide staining based flow cytometric analysis; format: functional
HL-60 [12] = assay: Induction of cell cycle arrest in human HL60 cells assessed as accumulation of cells at S phase at 20 to 35 nM incubated for 24 hrs by propidium iodide staining based flow cytometric analysis; format: functional
SW480 [13] = assay: Induction of cell cycle arrest in human SW480 cells assessed as accumulation of cells at S phase at 20 to 35 nM incubated for 72 hrs by propidium iodide staining based flow cytometric analysis; format: functional
SW480 [14] = assay: Induction of cell death in human SW480 cells assessed as accumulation of large nuclei at 2 uM incubated for 72 hrs by Hoechst […] staining based fluorescence microscopic method; format: functional
SW480 [15] = assay: Induction of cell cycle arrest in human SW480 cells assessed as accumulation in G2/M phase at 2 to 4 uM for 72 hrs by propidium iodide staining based flow cytometric analysis; format: functional
HL-60 [16] = assay: Induction of cell cycle arrest in human HL60 cells assessed as accumulation in G2/M phase at 2 to 4 uM 24 hrs by propidium iodide staining based flow cytometric analysis; format: functional
SW480 [17] = assay: Induction of cell cycle arrest in human SW480 cells assessed as S phase cell cycle arrest at 2 to 4 uM incubated for 72 hrs by propidium iodide staining based flow cytometric analysis; format: functional
HL-60 [18] = assay: Induction of apoptosis in human HL60 cels assessed as activation of caspases preincubated for 24 hrs followed by addition of fluorescent pan-caspase substrate incubated for 90 mins by fluorescence based assay; format: functional, cell-based
SW480 [19] = assay: Induction of apoptosis in human SW480 cells assessed as activation of caspases preincubated for 72 hrs followed by addition of fluorescent pan-caspase substrate incubated for 90 mins by fluorescence based assay; format: functional, cell-based
SW480 [20] = assay: Induction of cell death in human SW480 cells assessed as accumulation of large cells at 2 uM incubated for 72 hrs by Hoechst […] staining based fluorescence microscopic method; format: functional

O=c1c2ccccc2nc2n1Cc1cc3ccccc3nc1-2 [LUOTONIN A]
Activity [1]: 16.3%
Activity [2]: 2.6%
Activity [3]: 2.1%
fold change (FC) (SW480 [4]): 0.91
fold change (FC) (HL-60 [5]): 0.83

COc1cc(OC)c2cc3c(nc2c1)-c1nc2ccc(Br)cc2c(=O)n1C3
fold change (FC) (SW480 [4]): 0.89
fold change (FC) (HL-60 [5]): inactive

Nc1ccc2nc3c(cc2c1)Cn1c-3nc2ccccc2c1=O
fold change (FC) (SW480 [4]): 0.24
fold change (FC) (HL-60 [5]): 0.26

O=c1c2ccccc2nc2n1Cc1cc3cccc(F)c3nc1-2
fold change (FC) (SW480 [4]): 0.88
fold change (FC) (HL-60 [5]): 0.61

COc1ccc2nc3c(cc2c1)Cn1c-3nc2ccc(Br)cc2c1=O
fold change (FC) (SW480 [4]): inactive
fold change (FC) (HL-60 [5]): 0.82

Nc1cccc2cc3c(nc12)-c1nc2ccccc2c(=O)n1C3
fold change (FC) (SW480 [4]): 0.58
fold change (FC) (HL-60 [5]): 0.02

CC[C@@]1(O)C(=O)OCc2c1cc1n(c2=O)Cc2cc3ccccc3nc2-1 [CAMPTOTHECIN]
IC50 (SW480 [6]): 210 nM
IC50 (HL-60 [7]): 18 nM
Activity [1]: 26.3%
Activity [2]: 6%
Activity [3]: 2.1%
Activity (HL-60 [8]): Dose-dependent effect
fold change (FC) (SW480 [4]): 0.3
fold change (FC) (HL-60 [5]): 0
Activity (SW480 [9]): inactive
Activity (SW480 [10]): inactive
Activity (HL-60 [11]): inactive
Activity (HL-60 [12]): Active
Activity (SW480 [13]): Active

COc1cc(OC)c2cc3c(nc2c1)-c1nc2ccc(I)cc2c(=O)n1C3
fold change (FC) (SW480 [4]): 0.99
fold change (FC) (HL-60 [5]): 0.83

Nc1ccc2nc3n(c(=O)c2c1)Cc1cc2cccc(N)c2nc1-3
IC50 (SW480 [6]): 2030 nM
IC50 (HL-60 [7]): 820 nM
Activity (SW480 [14]): Active
Activity [1]: 12.6 to 13%
Activity [2]: 9 to 9.2%
Activity [3]: 2.6%
Activity (SW480 [15]): Active
Activity (HL-60 [16]): Active
Activity (SW480 [17]): inactive
Activity (HL-60 [18]): Active
Activity (SW480 [19]): inactive
fold change (FC) (SW480 [4]): 0.31
fold change (FC) (HL-60 [5]): 0.01
Activity (SW480 [20]): Active

COc1cc(OC)c2cc3c(nc2c1)-c1nc2ccc(N)cc2c(=O)n1C3
fold change (FC) (SW480 [4]): 0.98
fold change (FC) (HL-60 [5]): 0.73
